Experimental data taken from patent publication US20110112135A1, “Imidazo [1,2-A] Pyridine Compounds” (priority 2007, published 2011).
pIC50: −log10 of the molar value.

Experiments:
human LXRβ = target: T1, human LXRβ (Homo sapiens, UniProt P55055); assay: Ligand-binding test procedure for human LXRβ (3H T0901317 tracer, flash plates); settings: biotinylated hLXRβ from E. coli extract; tracer 3H T0901317
T1 construct: biotin (biotinylated); made in house; host or cells: E. coli (crude extract)
T1 sequence (P55055 1-460): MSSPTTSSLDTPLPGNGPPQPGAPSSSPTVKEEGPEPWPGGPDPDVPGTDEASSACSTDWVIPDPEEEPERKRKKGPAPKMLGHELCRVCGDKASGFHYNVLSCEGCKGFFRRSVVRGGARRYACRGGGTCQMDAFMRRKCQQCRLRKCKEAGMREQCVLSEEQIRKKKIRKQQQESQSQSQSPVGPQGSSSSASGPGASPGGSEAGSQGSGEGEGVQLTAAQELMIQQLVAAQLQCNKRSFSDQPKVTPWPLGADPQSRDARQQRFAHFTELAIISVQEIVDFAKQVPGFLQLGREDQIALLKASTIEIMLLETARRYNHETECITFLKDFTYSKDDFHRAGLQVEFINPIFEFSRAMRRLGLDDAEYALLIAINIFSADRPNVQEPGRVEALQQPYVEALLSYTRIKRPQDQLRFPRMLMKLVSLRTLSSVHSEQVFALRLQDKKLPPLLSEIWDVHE
Experimental: I. Ligand-Binding Test Procedure for Human LXRβ.
Receptor source: E. coli extract from cells expressing biotinylated hLXRβ. Extract was made in a similar buffer as above, but with 50 mM TRIS.
(§1) Washed streptavidin and coated flash plates with wash buffer. Diluted receptor extract to give Bmax ˜4000 cpm and add to the wells. Wrapped the plates in aluminum foil and stored them at +4° C. over night.
(§2) Made a dilution series in DMSO of the test ligands. Made a 5 nM solution of the radioactive tracer in buffer. Mixed 250 μl diluted tracer with 5 μl of the test ligand from each concentration of the dilution series. Washed the receptor-coated flash plates. Added 200 μl per well of the ligand/radiolabel mixture to the receptor-coated flash plates. Wrapped the plates in aluminum foil and incubate at +4° C. over night.
(§3) Aspirated wells, and wash the flashed plates. Sealed the plate. Measured the remaining radioactivity in the plate.

human LXRα = target: T2, human LXRα (Homo sapiens, UniProt Q13133); assay: Ligand-binding test procedure for human LXRα (3H T0901317 tracer, flash plates); settings: biotinylated hLXRα from E. coli extract; tracer 3H T0901317
T2 construct: biotin (biotinylated); made in house; host or cells: E. coli (crude extract)
T2 sequence (Q13133 1-447): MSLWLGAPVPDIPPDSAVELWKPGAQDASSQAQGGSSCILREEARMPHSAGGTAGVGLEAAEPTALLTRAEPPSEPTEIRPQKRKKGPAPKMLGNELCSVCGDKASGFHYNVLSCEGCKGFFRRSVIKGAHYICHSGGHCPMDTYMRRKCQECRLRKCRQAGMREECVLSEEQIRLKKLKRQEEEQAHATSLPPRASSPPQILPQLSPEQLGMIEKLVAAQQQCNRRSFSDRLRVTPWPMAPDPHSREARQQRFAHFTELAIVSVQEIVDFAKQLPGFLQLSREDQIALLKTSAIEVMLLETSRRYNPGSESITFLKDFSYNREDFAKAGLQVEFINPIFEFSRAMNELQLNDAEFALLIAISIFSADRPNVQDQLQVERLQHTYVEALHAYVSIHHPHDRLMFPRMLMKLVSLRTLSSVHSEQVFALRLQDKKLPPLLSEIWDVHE
Experimental: II. Ligand-Binding Test Procedure for Human LXRα.
Receptor source: E. coli extract from cells expressing biotinylated hLXRα. Extract was made in a similar buffer as above, but with 50 mM TRIS.
as §1, §2, §3

SMILES | pIC50 (human LXRβ) | pIC50 (human LXRα)
CCc1nc2c(C#N)cccn2c1-c1cccc(Oc2cccc(S(N)(=O)=O)c2)c1 [Example 50, 3-[3-(8-cyano-2-ethylimidazo[1,2-a]pyridin-3-yl)phenoxy]benzenesulfonamide] | 6.03 | 4.83
CC(C)c1nc2c(Cl)cccn2c1-c1cccc(OCc2cccc(S(C)(=O)=O)c2)c1 [Example 53, 8-chloro-2-isopropyl-3-(3-{[3-(methylsulfonyl)benzyl]oxy}phenyl)imidazo[1,2-a]pyridine] | 6.86 | 5.73
CCc1nc2c(C#N)cccn2c1-c1cccc(OCc2cccc(S(C)(=O)=O)c2)c1 [Example 54, 2-ethyl-3-(3-{[3-(methylsulfonyl)benzyl]oxy}phenyl)imidazo[1,2-a]pyridine-8-carbonitrile] | 5.51 | 4.39
CC(C)c1nc2c(C#N)cccn2c1-c1cccc(OCc2cccc(S(C)(=O)=O)c2)c1 [Example 55, 2-isopropyl-3-(3-{[3-(methylsulfonyl)benzyl]oxy}phenyl)imidazo[1,2-a]pyridine-8-carbonitrile] | 5.96 | 4.55
CC(C)c1nc2c(C(F)(F)F)cccn2c1-c1cccc(OCc2ccc(S(C)(=O)=O)cc2)c1 [Example 56, 2-isopropyl-3-(3-{[4-(methylsulfonyl)benzyl]oxy}phenyl)-8-(trifluoromethyl)imidazo[1,2-a]pyridine] | 5.38 | 4.44
CC(C)c1nc2c(Cl)cccn2c1-c1cccc(OCc2ccc(S(C)(=O)=O)cc2)c1 [Example 57, 8-chloro-2-isopropyl-3-(3-{[4-(methylsulfonyl)benzyl]oxy}phenyl)imidazo[1,2-a]pyridine] | 5.07 | < 6.00
CCc1nc2c(C#N)cccn2c1-c1cccc(OCc2ccc(S(C)(=O)=O)cc2)c1 [Example 58, 2-ethyl-3-(3-{[4-(methylsulfonyl)benzyl]oxy}phenyl)imidazo[1,2-a]pyridine-8-carbonitrile] | < 6.00 | < 6.00
CC(C)c1nc2c(C#N)cccn2c1-c1cccc(OCc2ccc(S(C)(=O)=O)cc2)c1 [Example 59, 2-isopropyl-3-(3-{[4-(methylsulfonyl)benzyl]oxy}phenyl)imidazo[1,2-a]pyridine-8-carbonitrile] | < 6.00 | < 6.00
CNCCCS(=O)(=O)c1cccc(Oc2cccc(-c3c(C(C)C)nc4c(C(F)(F)F)cccn34)c2)c1 [Example 62, 3-[(3-{3-[2-isopropyl-8-(trifluoromethyl)imidazo[1,2-a]pyridin-3-yl]phenoxy}phenyl)sulfonyl]-N-methylpropan-1-amine] | 7.04 | 5.55
CCc1nc2c(C#N)cccn2c1-c1cccc(Oc2cccc(S(C)(=O)=O)c2)c1 [Example 69, 2-ethyl-3-{3-[3-(methylsulfonyl)phenoxy]phenyl}imidazo[1,2-a]pyridine-8-carbonitrile] | 6.79 | 5.57
CCS(=O)(=O)c1cccc(Oc2cccc(-c3c(C(C)(C)C)nc4c(C(F)(F)F)cccn34)c2)c1 [Example 76, 2-tert-butyl-3-{3-[3-(ethylsulfonyl)phenoxy]phenyl}-8-(trifluoromethyl)imidazo[1,2-a]pyridine] | 8.25 | 6.87
CC(C)S(=O)(=O)c1cccc(Oc2cccc(-c3c(C(C)(C)C)nc4c(C(F)(F)F)cccn34)c2)c1 [Example 77, 2-tert-butyl-3-{3-[3-(isopropylsulfonyl)phenoxy]phenyl}-8-(trifluoromethyl)imidazo[1,2-a]pyridine] | 8.21 | 6.80
CC(C)S(=O)(=O)c1cccc(Oc2cccc(-c3c(C(C)(C)C)nc4c(C#N)cccn34)c2)c1 [Example 80, 2-tert-butyl-3-{3-[3-(isopropylsulfonyl)phenoxy]phenyl}imidazo[1,2-a]pyridine-8-carbonitrile] | 7.79 | 6.28
CC(C)(C)c1nc2c(C#N)cccn2c1-c1cccc(Oc2cccc(S(=O)(=O)CCCO)c2)c1 [Example 81, 2-tert-butyl-3-(3-{3-[(3-hydroxypropyl)sulfonyl]phenoxy}phenyl)imidazo[1,2-a]pyridine-8-carbonitrile] | 6.82 | 5.62
CS(=O)(=O)c1cccc(Oc2cccc(-c3c(Cl)nc4c(C(F)(F)F)cccn34)c2)c1 [Example 85, 2-chloro-3-{3-[3-(methylsulfonyl)phenoxy]phenyl}-8-(trifluoromethyl)imidazo[1,2-a]pyridine] | 7.08 | 5.56
CCc1nc2c(C(F)(F)F)cccn2c1-c1cccc(Oc2cccc(S(C)(=O)=O)c2)n1 [Example 88, 2-ethyl-3-{6-[3-(methylsulfonyl)phenoxy]pyridin-2-yl}-8-(trifluoromethyl)imidazo[1,2-a]pyridine] | < 6.00 | < 6.00
CC(C)c1nc2c(C(F)(F)F)cccn2c1-c1cccc(Oc2cccc(S(C)(=O)=O)c2)n1 [Example 89, 2-isopropyl-3-{6-[3-(methylsulfonyl)phenoxy]pyridin-2-yl}-8-(trifluoromethyl)imidazo[1,2-a]pyridine] | < 6.00 | < 6.00
CCc1nc2c(C(F)(F)F)cccn2c1-c1ccc(-c2ccc(S(=O)(=O)C(C)C)cc2)cc1 [Example 92, 2-ethyl-3-(4′-(isopropylsulfonyl)biphenyl-4-yl)-8-(trifluoromethyl)imidazo[1,2-a]pyridine] | 5.80 | < 6.00
CCc1nc2c(C(F)(F)F)cccn2c1-c1ccc(-c2ccc(S(C)(=O)=O)cc2)cc1 [Example 93, 2-ethyl-3-(4′-(methylsulfonyl)biphenyl-4-yl)-8-(trifluoromethyl)imidazo[1,2-a]pyridine] | 5.39 | < 6.00
CC(C)c1nc2c(C(F)(F)F)cccn2c1-c1ccc(-c2ccc(S(C)(=O)=O)cc2)cc1 [Example 94, 2-isopropyl-3-(4′-(methylsulfonyl)biphenyl-4-yl)-8-(trifluoromethyl)imidazo[1,2-a]pyridine] | < 6.00 | < 6.00
CCc1nc2c(C(F)(F)F)cccn2c1-c1ccc(-c2cccc(S(C)(=O)=O)c2)cc1 [Example 95, 2-ethyl-3-(3′-(methylsulfonyl)biphenyl-4-yl)-8-(trifluoromethyl)imidazo[1,2-a]pyridine] | 6.87 | 5.58
CC(C)c1nc2c(Cl)cccn2c1-c1cccc(Oc2ccc(S(N)(=O)=O)cc2)c1 [Example 99, 4-[3-(8-chloro-2-isopropylimidazo[1,2-a]pyridin-3-yl)phenoxy]benzenesulfonamide] | < 6.00 | < 6.00
CCc1nc2c(C(F)(F)F)cccn2c1-c1ccc(Cc2cccc(S(C)(=O)=O)c2)cc1 [Example 101, 2-ethyl-3-{4-[3-(methylsulfonyl)benzyl]phenyl}-8-(trifluoromethyl)imidazo[1,2-a]pyridine] | < 6.00 | < 6.00
CCc1nc2c(C(F)(F)F)cccn2c1-c1ccc(Oc2cccc(S(C)(=O)=O)c2)cc1 [Example 102, 2-ethyl-3-{4-[3-(methylsulfonyl)phenoxy]phenyl}-8-(trifluoromethyl)imidazo[1,2-a]pyridine] | 6.47 | < 6.00
CCc1nc2c(Cl)cccn2c1-c1ccc(Oc2cccc(S(C)(=O)=O)c2)cc1 [Example 103, 8-chloro-2-ethyl-3-{4-[3-(methylsulfonyl)phenoxy]phenyl}imidazo[1,2-a]pyridine] | 6.38 | < 6.00
